As usually defined, the EC50 is the concentration at which the effect is half-maximal.

Molecules are shown by their SMILES. Where two headings read alike, the source gives them in different places.

The subject of data set [1] is total C7 in HEK293^R578X cells. Description: AlphaLISA quantification of total C7 in recombinant HEK293^R578X cells. Format: cell-based, human. As to the method:
(§1) The AlphaLISA assay was developed in-house by using the biotin-conjugated rabbit polyclonal antibody anti-C7 (LSBio LS-298147) and conjugating the acceptor beads (PerkinElmer 6772001) to a monoclonal anti-Collagen type VII antibody produced in mouse, clone LH7.2 (Thermo MA5-13,432). Formulation of the mAb clone LH7.2 was exchanged to PBS and concentrated 5 × by using Amicon® Ultra-0.5 centrifugal filters up to 1 mg/ml. The conjugation procedure was carried out according to the protocol provided by PerkinElmer.
(§2) For compound treatment in RDEB patient-derived transformed keratinocytes, 5,000 cells were plated in 20 µL of supplemented KGM media containing 20 ng/mL TGFβ2 (SIGMA GF113) without GA-1000 in 384-well cell culture plates (Greiner 781098). The day after, 5 µL of test compounds prepared 5 × in supplemented KGM without GA-1000 were added over cells and incubated for 48 h at 37 °C and 5% CO2. For compound treatment in HEK293^R578X, 10,000 cells were plated in 20 μL of DMEM (High Glucose, 2 mM L-Glutamine, sodium pyruvate, and FBS 10%) in 384-well cell culture plates (Greiner 781,098,). The day after, 5 μL of test compounds prepared 5 × in DMEM complete medium were added over cells and incubated for 48 h at 37 °C and 5% CO2.
(§3) After the treatment process, 2.5 µL of RIPA buffer 10 x (Abcam ab156034) were added over the […] of cells for 20 min at room temperature to obtain a complete cell lysis. Then, 2 μL of sample (i.e., cell lysate with supernatant) were transferred to the AlphaLISA plate (PerkinElmer 6,059,340) containing […] of antibodies mixture ([…] of acceptor Beads-Ab and […] of biotin-rAb) prepared in AlphaLISA buffer 1 x (PerkinElmer AL00F). The reaction was incubated for 90 min at room temperature. Finally, 10 μL of […] of donor beads (PerkinElmer 6760002,) were added to the reaction under subdued light, mixed gently, and incubated for 3 h at room temperature. AlphaLISA signal was detected with an Envision microplate reader (Perkin Elmer) using the following setting: Filter: AlphaScreen, Excitation time: 180 ms, Integration time: 300 ms.
(§4) Statistical analyses were performed using GraphPad Prism v. 7.04 (La Jolla, California). Results are shown as mean ± SD of experimental replicates. Dose–response curves to assess compound treatment effect were plotted in a four-parameter logistic model. Relative EC50, representing the total drug concentration producing a 50% effect, was calculated in the four-parameter logistic equation. Comparisons of collagen protein and mRNA expression in different experimental conditions were made using ANOVA, followed by a post hoc test. statistical significance was considered with p values < 0.05.
On the technique in general: Alpha assays give light when donor and acceptor beads are brought close together.

Data set [2] concerns total (truncated + full length) C7 in RDEB_L5 cells. The data set can be described thus: AlphaLISA quantification of total C7 in RDEB_L5 cells. The class given is cell-based, human. As to the method: as §1, §2, §3, §4
The next data set has as its system NHK cells. The data set can be described thus: Cytotoxicity, ATP levels, normal human keratinocytes (NHK). Format: cell-based. The settings on record: NHK cells, ATP levels, at 40 µM. As to the method: The viability of RDEB patient-derived cell lines or NHK was evaluated by measuring the ATP levels as an indirect readout of the potential cytotoxicity effect of compounds. Cells were plated and treated exactly with the same conditions as those followed in the AlphaLISA assay, described above. To measure ATP levels, cells were processed using the ATPlite™ 1step luminescence-based assay (PerkinElmer 6,016,731), following the manufacturer’s protocol. 25 μL of ATPlite™ reagent was added directly over cells and plates were covered with a sealing film and shaken for 25 min using a microtiter plate shaker. Luminescence was measured in a Luminoskan Ascent luminometer (Thermo Fisher Scientific). 10 μM of Staurosporine was used as a reference compound and control for the total cytotoxicity.

Data set [3] has as its system truncated and full-length C7 in RDEB_L1, RDEB_L5 and HEK293^R578X cells. Description: Western blot detection of truncated and full-length C7. The settings on record: RDEB_L1, RDEB_L5 and HEK293^R578X cells. The class given is cell-based, human. As to the method: For western blot, RDEB or normal human keratinocytes were lysed in protein extraction buffer (50 mM Tris–HCl [pH 7.5], 100 mM NaCl, 1% Nonidet P-40, and 4 mM EDTA) containing proteinase inhibitors cocktail (Complete Mini, EDTA free; Roche Diagnostics, Mannheim, Germany). Lysates were incubated for 30 min on ice and centrifuged at 15,000 g for 30 min at 4 °C. Supernatants were then collected and concentrated by ultrafiltration using Amicon Ultra columns (10 kDa; Millipore, Ireland). Protein concentrations were measured using the Bradford assay (Bio-Rad, Hercules, CA). For each sample, […] total protein was resolved on NuPAGE Novex 3%–8% Tris–Acetate gel electrophoresis (Invitrogen, Carlsbad, CA) and electrotransferred to nitrocellulose membranes (Invitrogen, Carlsbad, CA). For type VII collagen analysis, blots were probed with a monospecific polyclonal anti-C7 antibody (a generous gift from Dr. A. Nystrom, University of Freiburg). Invitrogen anti-MDH1 polyclonal antibody (PA550446, 1:1000) was used to detect MDH1. Standard antibodies against a reference protein were used as a loading control, as indicated. Visualization of the resulting signal was performed by incubating with horseradish peroxidase (HRP)- conjugated anti-rabbit antibody (Amersham, Burlington, MA) and West Pico Chemiluminescent Substrate (Pierce, Rockford, IL).

Data set [4] relates to total (truncated + full length) C7 in RDEB_L1 cells. The data set can be described thus: AlphaLISA quantification of total C7 in RDEB_L1 cells. Format: cell-based, human. On the procedure: as §1, §2, §3, §4

On to `CN[C@@H]1[C@@H](O)[C@@H](O[C@@H]2[C@@H](O)[C@H](O[C@H]3O[C@H]([C@@H](C)O)[C@@H](O)[C@H](O)[C@H]3N)[C@@H](N)C[C@H]2N)OC[C@]1(C)O` [Compound G418, G418, reference compound], for which the “Increase in C7 levels Emax, % vs baseline” value came out at 71 ± 6 at 40 % vs baseline in data set [1] (at 40 µM); 35.5 at 25 % vs baseline in data set [2] (at 25 µM, 20 ng/mL TGFß2); 124 ± 76 at 20 % vs baseline in data set [4] (RDEB_L1 cells, at 20 µM, 20 ng/mL TGFß2). Besides, the EC50 in data set [1] (total C7 AlphaLISA, 48 h, relative EC50, mean ± SD, read-out: Increase in C7 levels EC50) is 16 ± 0.09 µM; in data set [2] (total C7 AlphaLISA, 48 h, 20 ng/mL TGFß2, relative EC50, mean ± SD, read-out: Increase in C7 levels EC50), 12 µM; in data set [4] (RDEB_L1 cells, read-out: EC50 in the AlphaLISA assay), 4.9 µM; in data set [4] (in RDEB_L1 and RDEB_L5 cells, read-out: EC50 (range over two cell lines)) it was 4.9 to 12 µM. Moreover, in the data set on NHK cells, the “Cytotox. % inhibition of viability” value is 30.8% ± 3.4 at 40 (n=4). Besides, the “C7 products induced, western blot” value in data set [3] is “detectable upregulation of full length and truncated C7”.

Source of the values: publication PMC11329504, “Identification of novel small molecule-based strategies of COL7A1 upregulation and readthrough activity for the treatment of recessive dystrophic epidermolysis bullosa” (Scientific Reports, 2024).
